Data published in ChEMBL document CHEMBL4627331 (Bioorg Med Chem Lett, 2020).

Key:
Acetylcholinesterase [1] = biological target: Acetylcholinesterase (Electrophorus electricus, UniProt O42275); assay: Inhibition of electric eel AchE using acetylthiocholine as substrate by Ellman's method
[2] = biological target: acetylcholinesterase (AChE) (Electrophorus electricus, UniProt O42275); assay: Inhibition of electric eel AchE at 100 uM using acetylthiocholine as substrate by Ellman's method relative to control; conditions: electric eel AChE enzyme, probe acetylthiocholine
Sequence of acetylcholinesterase (AChE) (Electrophorus electricus, UniProt O42275) (O42275 whole entry): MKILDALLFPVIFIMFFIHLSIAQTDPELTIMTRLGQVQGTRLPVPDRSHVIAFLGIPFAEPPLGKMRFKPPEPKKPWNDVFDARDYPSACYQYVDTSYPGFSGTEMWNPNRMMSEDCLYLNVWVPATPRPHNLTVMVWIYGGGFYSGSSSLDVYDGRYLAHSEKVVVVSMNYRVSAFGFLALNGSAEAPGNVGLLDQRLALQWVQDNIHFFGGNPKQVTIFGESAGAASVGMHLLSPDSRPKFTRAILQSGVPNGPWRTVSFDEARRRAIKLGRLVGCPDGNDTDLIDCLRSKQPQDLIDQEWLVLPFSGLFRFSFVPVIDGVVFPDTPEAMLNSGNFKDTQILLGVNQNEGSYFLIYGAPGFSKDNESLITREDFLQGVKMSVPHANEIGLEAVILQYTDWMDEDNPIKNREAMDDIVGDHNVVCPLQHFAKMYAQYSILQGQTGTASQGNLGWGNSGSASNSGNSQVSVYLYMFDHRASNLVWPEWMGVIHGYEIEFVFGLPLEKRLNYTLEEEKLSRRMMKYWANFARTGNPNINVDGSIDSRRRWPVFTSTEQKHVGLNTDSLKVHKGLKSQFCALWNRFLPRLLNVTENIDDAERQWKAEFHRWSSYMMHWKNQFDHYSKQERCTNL

Cholinesterase [3] = biological target: Cholinesterase (Equus caballus, UniProt P81908)
Sequence of Cholinesterase (Equus caballus, UniProt P81908) (P81908 whole entry): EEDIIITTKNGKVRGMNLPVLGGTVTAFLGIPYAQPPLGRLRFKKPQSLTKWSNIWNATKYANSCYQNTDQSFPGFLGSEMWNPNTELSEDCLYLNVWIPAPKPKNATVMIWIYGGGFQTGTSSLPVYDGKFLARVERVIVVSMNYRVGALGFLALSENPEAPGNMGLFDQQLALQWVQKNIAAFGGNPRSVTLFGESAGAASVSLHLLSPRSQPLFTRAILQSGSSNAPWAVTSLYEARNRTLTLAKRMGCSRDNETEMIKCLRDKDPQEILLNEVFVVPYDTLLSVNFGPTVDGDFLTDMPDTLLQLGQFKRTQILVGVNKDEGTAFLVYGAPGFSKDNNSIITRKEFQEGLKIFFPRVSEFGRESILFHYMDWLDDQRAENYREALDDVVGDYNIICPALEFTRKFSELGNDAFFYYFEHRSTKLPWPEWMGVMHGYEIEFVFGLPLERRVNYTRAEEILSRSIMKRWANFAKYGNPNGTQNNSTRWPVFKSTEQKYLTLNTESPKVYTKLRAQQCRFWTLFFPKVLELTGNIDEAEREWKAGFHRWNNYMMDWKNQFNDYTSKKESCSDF
Description: Inhibition of equine BuchE using butyrylthiocholine as substrate by Ellman's method

Acetylcholinesterase [4] = biological target: Acetylcholinesterase (Homo sapiens, UniProt P22303); assay: Inhibition of human AchE
Sequence of Acetylcholinesterase (Homo sapiens, UniProt P22303) (P22303 whole entry): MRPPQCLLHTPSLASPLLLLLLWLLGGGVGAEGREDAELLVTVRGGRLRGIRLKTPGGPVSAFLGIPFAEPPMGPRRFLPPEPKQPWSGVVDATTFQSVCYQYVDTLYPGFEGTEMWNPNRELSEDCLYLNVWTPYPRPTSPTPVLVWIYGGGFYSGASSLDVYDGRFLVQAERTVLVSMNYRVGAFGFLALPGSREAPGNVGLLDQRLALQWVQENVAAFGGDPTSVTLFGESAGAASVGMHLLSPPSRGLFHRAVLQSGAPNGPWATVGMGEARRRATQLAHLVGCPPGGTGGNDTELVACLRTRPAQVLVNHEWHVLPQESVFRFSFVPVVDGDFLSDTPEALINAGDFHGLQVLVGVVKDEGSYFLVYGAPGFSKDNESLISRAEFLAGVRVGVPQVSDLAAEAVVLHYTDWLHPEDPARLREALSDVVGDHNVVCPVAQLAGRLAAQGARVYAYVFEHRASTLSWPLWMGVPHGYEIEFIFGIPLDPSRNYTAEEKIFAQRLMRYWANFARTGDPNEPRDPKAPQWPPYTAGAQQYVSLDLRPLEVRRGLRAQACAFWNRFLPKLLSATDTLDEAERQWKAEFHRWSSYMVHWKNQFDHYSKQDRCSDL

[5] = Selectivity index, ratio of IC50 for equine BuchE using butyrylthiocholine as substrate by Ellman's method to IC50 for human BuchE
Cholinesterase [6] = biological target: Cholinesterase (Homo sapiens, UniProt P06276); assay: Inhibition of human BuchE
Sequence of Cholinesterase (Homo sapiens, UniProt P06276) (P06276 whole entry): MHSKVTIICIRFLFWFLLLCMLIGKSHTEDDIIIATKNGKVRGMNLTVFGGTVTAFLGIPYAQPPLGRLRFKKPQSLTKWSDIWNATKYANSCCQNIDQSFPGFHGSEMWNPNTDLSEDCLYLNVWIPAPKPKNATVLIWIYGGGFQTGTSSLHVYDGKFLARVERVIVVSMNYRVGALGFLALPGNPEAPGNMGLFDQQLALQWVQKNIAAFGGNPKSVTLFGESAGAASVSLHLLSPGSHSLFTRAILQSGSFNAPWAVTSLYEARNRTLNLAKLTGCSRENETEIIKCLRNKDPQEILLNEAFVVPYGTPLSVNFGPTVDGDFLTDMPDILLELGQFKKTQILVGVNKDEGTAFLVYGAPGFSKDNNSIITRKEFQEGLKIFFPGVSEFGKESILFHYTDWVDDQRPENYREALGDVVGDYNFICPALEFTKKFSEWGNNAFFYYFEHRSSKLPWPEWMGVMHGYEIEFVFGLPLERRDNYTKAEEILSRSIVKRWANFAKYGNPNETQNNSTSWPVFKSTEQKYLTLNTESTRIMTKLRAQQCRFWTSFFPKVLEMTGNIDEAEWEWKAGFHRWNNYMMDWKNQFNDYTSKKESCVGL

[7] = biological target: acetylcholinesterase (AChE) (Homo sapiens, UniProt P22303); assay: Inhibition of human AchE at 100 uM relative to control; conditions: human AChE enzyme
Sequence of acetylcholinesterase (AChE) (Homo sapiens, UniProt P22303) (P22303 whole entry): as the sequence (P22303 whole entry) above

[8] = Cytotoxicity against human SH-SY5Y cells by MTT assay; type: cell-based

Sequence of Acetylcholinesterase (Electrophorus electricus, UniProt O42275) (O42275 whole entry): as the sequence (O42275 whole entry) above

## COc1cc(C2C3=C(CCCC3=O)N(C)C3=C2C(=O)CCC3)ccc1OCc1ccc(F)cc1
Acetylcholinesterase [1]
  IC50: > 100000 nM
[2]
  inhibition at 100 µM: 33%
Cholinesterase [3]
  IC50: 2440 nM

## COc1cc(C2C3=C(CCCC3=O)NC3=C2C(=O)CCC3)ccc1OS(=O)(=O)c1ccc(C)cc1
Acetylcholinesterase [1]
  IC50: > 100000 nM
[2]
  inhibition at 100 µM: 15%
Cholinesterase [3]
  IC50: 959 nM

## O=C1CCCC2=C1C(c1ccc(OCc3cccc(F)c3)c(Br)c1)C1=C(CCCC1=O)N2
Acetylcholinesterase [1]
  IC50: > 100000 nM
Acetylcholinesterase [4]
  IC50: > 100000 nM
[2]
  inhibition at 100 µM: 22%
[5]
  Ratio IC50: 2.5
Cholinesterase [3]
  IC50: 388 nM
Cholinesterase [6]
  IC50: 142 nM
[7]
  inhibition at 100 µM: 39%

## CN1C2=C(C(=O)CCC2)C(c2ccc(OCc3ccc(Cl)cc3)c(Cl)c2)C2=C1CCCC2=O
Acetylcholinesterase [1]
  IC50: > 100000 nM
[2]
  inhibition at 100 µM: 23%
Cholinesterase [3]
  IC50: 1660 nM

## CCOc1cc(C2C3=C(CCCC3=O)NC3=C2C(=O)CCC3)ccc1OCc1ccccc1
Acetylcholinesterase [1]
  IC50: > 100000 nM
[2]
  inhibition at 100 µM: 19%
Cholinesterase [3]
  IC50: 752 nM

## O=C1CCCC2=C1C(c1ccc(OCc3ccccc3)cc1)C1=C(CCCC1=O)N2
Acetylcholinesterase [1]
  IC50: > 100000 nM
[2]
  inhibition at 100 µM: 24%
Cholinesterase [3]
  IC50: 6010 nM

## O=C1CCCC2=C1C(c1ccc(OCc3ccccc3)c(Br)c1)C1=C(CCCC1=O)N2
Acetylcholinesterase [1]
  IC50: > 100000 nM
[2]
  inhibition at 100 µM: 14%
Cholinesterase [3]
  IC50: 633 nM

## COc1cc(C2C3=C(CCCC3=O)NC3=C2C(=O)CCC3)ccc1OCc1ccc(F)cc1
Acetylcholinesterase [1]
  IC50: > 100000 nM
Acetylcholinesterase [4]
  IC50: 125000 nM
[2]
  inhibition at 100 µM: 27%
[8]
  CC50: ≥ 100000 nM
[5]
  Ratio IC50: 2.5
Cholinesterase [3]
  IC50: 242 nM
Cholinesterase [6]
  IC50: 98 nM
